Series [1] concerns the target T1, ycbD product (aldehyde dehydrogenase) (Bacillus subtilis, UniProt P42236).
T1 construct: made in house; host or cells: E. coli BLR(DE3), [ycbD+ycbE]-pET30a, desalted cell extract
Briefly: Dehydrogenase activity of cell extracts, absorbance at 340 nm. The format is biochemical. The note with it: 200 mM substrate, 0.05 mL cell extract (0.25 mg protein); for Relative Activity NAD: 1 mM NAD; for Relative Activity NADP: 1 mM NADP. The method, then: The dehydrogenase activity of the cell extracts was followed using acetaldehyde, glucuronic acid, and glucurono-3,6-lactone as substrates in 96-well plates. Each assay mixture contained 100 mM potassium phosphate, pH 7.8, 1 mM NADP or NAD, 200 mM substrate, and between 0.02 and 0.1 mL cell extract (0.1 to 0.5 mg protein). The reactions were started by adding the enzyme and were incubated at 30° C. in the spectrophotometer. The dehydrogenase activity was followed by monitoring the linear change in absorbance at 340 nm over a 10 minute time period (referenced to a reaction mixture without substrate).

The test system of a further series is serum cholesterol. The note with it: mammals; cited from earlier work.
Another series concerns beta-glucuronidase. To be noted: cited from earlier work.
The target of series [2] is T2, myo-inositol oxygenase (MIO) (Homo sapiens, UniProt Q9UGB7).
T2 construct: made in house; host or cells: Hi5 / Sf-9 insect cells (baculovirus, pFastBacHTa); also E. coli DH10B (pTRC99A) and S. cerevisiae INVSc1 (pYES2)
T2 sequence (Q9UGB7 with tags, fused parts or gaps): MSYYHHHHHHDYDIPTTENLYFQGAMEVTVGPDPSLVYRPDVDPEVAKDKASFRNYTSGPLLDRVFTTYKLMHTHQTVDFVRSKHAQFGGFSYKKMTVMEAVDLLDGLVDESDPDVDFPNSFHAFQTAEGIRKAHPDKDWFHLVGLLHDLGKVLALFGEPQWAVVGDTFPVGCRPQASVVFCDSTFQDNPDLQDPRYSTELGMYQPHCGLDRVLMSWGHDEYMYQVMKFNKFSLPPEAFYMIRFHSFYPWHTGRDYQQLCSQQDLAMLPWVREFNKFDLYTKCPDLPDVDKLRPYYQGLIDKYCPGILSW
Briefly: MIO-orcinol assay of recombinant human MIO. The format is biochemical. The method, then:
MIO activity was determined using a modification of the method described by Reddy et al. (J. Biol. Chem., 256, 8510 (1981)). Briefly, this assay is based on the reaction of orcinol (5-methyl-1,3-benzenediol) with the MIO enzyme reaction product, D-glucuronic acid. The standard assay mixture contained 50 mM Tris-HCl (pH 8.0), 2.0 mM cysteine, 1.0 mM ferrous ammonium sulfate, 60 mM myo-inositol, and appropriate quantities of enzyme in a total volume of 0.50 mL. The stock L-cysteine solution (0.10 M) was prepared every two weeks, and the stock ferrous ammonium sulfate solution (0.50 M) was prepared fresh daily. The enzyme solutions consisted of cell extracts prepared as described or chromatography fractions generated during the partial purification of the enzyme. Prior to initiating the reaction by addition of the substrate myo-inositol (stock solution of 0.50 M, dissolved in 50 mM TEGG), all other reagents were mixed together by vortexing and incubated for 5 minutes at 30° C. The substrate was then added to initiate the assay. After vortex-mixing the components, the reaction was carried out in an air atmosphere at 30° C. with shaking at 200 rpm for 10 minutes. The reaction was terminated by the addition of 75 μL of 20% trichloroacetic acid. After vortexing, the assay mixture was transferred to a 1.5 mL polypropylene microcentrifuge tube, and the precipitated polypeptide was separated by centrifugation at 21,000×g for 3 minutes at 25° C. The supernatant was transferred to a new 1.5 mL polypropylene microcentrifuge tube, and the D-glucuronic acid concentration was determined by the orcinol colorimetric assay.
The orcinol colorimetric determination assay was performed as follows. Freshly prepared orcinol reagent (0.6 mL; 0.4% (w/v) orcinol, 0.09% (w/v) ferric trichloride hexahydrate in concentrated HCl) was added to 0.3 mL of the clear supernatant. The mixture was vortex-mixed and then incubated in a boiling water bath for 30 minutes. After cooling to 25° C., the mixture was cleared by centrifugation at 21,000×g for 3 minutes. The supernatant was transferred to a disposable cuvette, and the absorbance was measured at 660 nm. A standard curve was generated by replacing the enzyme fraction with D-glucuronic acid (0 to 40 μg/mL) and carrying out the assay as described above. […]
All reactions were run in duplicate, and all polypeptide fractions were assayed with and without added myo-inositol substrate (an equal volume of TEGG buffer with or without substrate was added to initiate the assay). The average of the absorbance readings of the assay mixtures carried out without substrate was subtracted from the average of readings of the assay mixtures containing substrate. […]

The target of another series is T3, glucuronate reductase (Rattus norvegicus, UniProt P51635, T2A).
T3 construct: His tag (pET30a fusion); made in house; host or cells: E. coli BLR(DE3), pET30a
T3 sequence (P51635 1-325 T2A): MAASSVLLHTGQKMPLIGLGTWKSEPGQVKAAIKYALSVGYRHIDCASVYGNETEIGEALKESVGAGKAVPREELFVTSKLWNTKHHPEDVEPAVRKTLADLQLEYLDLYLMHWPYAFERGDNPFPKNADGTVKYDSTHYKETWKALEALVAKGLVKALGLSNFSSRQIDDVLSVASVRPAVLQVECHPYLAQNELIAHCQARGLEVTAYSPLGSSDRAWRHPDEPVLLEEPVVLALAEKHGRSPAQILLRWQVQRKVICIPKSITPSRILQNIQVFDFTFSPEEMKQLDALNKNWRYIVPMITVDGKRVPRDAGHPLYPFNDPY
Briefly: GLR assay, loss of absorbance at 340 nm (loss of NADPH). Format: biochemical. The method, then: GLR was assayed by following the loss of absorbance at 340 nm (loss of NADPH) using 0.3 mM NADPH, 10 mM glucuronic acid, and variable amount of enzyme in 100 mM sodium phosphate, pH 6.6 (Hayashi et al., J. Biochem., 95:2223-2232 (1984)). 1-2 micromoles of NADPH were typically consumed per minute per mg protein.

T1 sequence (P42236 whole entry): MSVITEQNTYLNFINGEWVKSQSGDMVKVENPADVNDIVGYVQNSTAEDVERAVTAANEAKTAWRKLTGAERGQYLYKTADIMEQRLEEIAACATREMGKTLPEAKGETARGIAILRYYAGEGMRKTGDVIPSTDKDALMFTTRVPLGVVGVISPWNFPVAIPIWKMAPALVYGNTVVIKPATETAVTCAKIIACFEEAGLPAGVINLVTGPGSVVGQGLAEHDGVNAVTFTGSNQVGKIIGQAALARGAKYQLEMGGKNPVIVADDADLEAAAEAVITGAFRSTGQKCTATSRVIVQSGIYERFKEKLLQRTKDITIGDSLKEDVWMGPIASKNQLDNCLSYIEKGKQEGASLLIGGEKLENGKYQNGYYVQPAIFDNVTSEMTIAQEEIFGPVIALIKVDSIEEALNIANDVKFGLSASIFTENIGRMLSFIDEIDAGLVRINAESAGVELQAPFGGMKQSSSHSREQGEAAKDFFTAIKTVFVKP

As to `O=C[C@H](O)[C@@H](O)[C@H](O)[C@H](O)C(=O)O` [D-glucuronate], in series [1], the “Relative Activity NAD” value is reported as 2.4 percentage of maximum activity and the “Relative Activity NADP” value is 2.1 percentage of maximum activity.

For `O=C[C@H](O)[C@H]1OC(=O)[C@@H](O)[C@H]1O` [D-glucurono-3,6-lactone], in series [1], the “Relative Activity NAD” value was 2.1 percentage of maximum activity and the “Relative Activity NADP” value is 50.6 percentage of maximum activity.

In the case of `O=C(O)[C@@H](O)[C@@H](O)[C@H](O)[C@@H](O)C(=O)O` [Glucaric acid], in the series with serum cholesterol, the “effect on serum cholesterol” value was “lower serum cholesterol”. Moreover, the inhibition of beta-glucuronidase result in the series with beta-glucuronidase is “potent inhibitor”.

Consider `CC=O` [acetaldehyde], for which, in series [1], the “Relative Activity NAD” value is recorded as 56.9 percentage of maximum activity and the “Relative Activity NADP” value was 100.0 percentage of maximum activity.

B1: purified polypeptide: His-tagged human MIO polypeptide, SEQ ID NO:12, expressed by baculovirus in insect cells (protein)
chain: T2 sequence (Q9UGB7 with tags, fused parts or gaps)
modifications: His tag; human polypeptide with non-human sequences
On to B1, for which the MIO activity result in series [2] (Hi5 insect cells, baculovirus expression, FIG. 8) is on record as “exhibited MIO activity”. Also, the specific activity in series [2] (Nickel-NTA purified to homogeneity, from insect cells) is recorded as 225 μg glucuronic acid formed per mg polypeptide during a 10 minute assay.

B2: human MIO polypeptide: Human myo-inositol oxygenase (ORF EMBL: CAB63064.1) expressed in E. coli or S. cerevisiae, assayed in cell extracts (protein, UniProt Q9UGB7 1-285, looked up)
Inositol oxygenase: MKVTVGPDPSLVYRPDVDPEVAKDKASFRNYTSGPLLDRVFTTYKLMHTHQTVDFVRSKHAQFGGFSYKKMTVMEAVDLLDGLVDESDPDVDFPNSFHAFQTAEGIRKAHPDKDWFHLVGLLHDLGKVLALFGEPQWAVVGDTFPVGCRPQASVVFCDSTFQDNPDLQDPRYSTELGMYQPHCGLDRVLMSWGHDEYMYQVMKFNKFSLPPEAFYMIRFHSFYPWHTGRDYQQLCSQQDLAMLPWVREFNKFDLYTKCPDLPDVDKLRPYYQGLIDKYCPGILSW
With B2, the specific activity is recorded as 8.8 μg glucuronic acid formed per mg polypeptide in 10 minutes in series [2] (E. coli, pTRC99A, IPTG induced, desalted cell extract) and 13.4 μg glucuronic acid formed per mg polypeptide in 10 minutes in series [2] (S. cerevisiae INVSc1, pYES2, cell extract, 12 hours after induction).

B3: GLR: glucuronate reductase, rat glr expressed from pET30a in E. coli, His-Bind purified (protein, UniProt P51635 2-325, looked up)
Aldo-keto reductase family 1 …: TASSVLLHTGQKMPLIGLGTWKSEPGQVKAAIKYALSVGYRHIDCASVYGNETEIGEALKESVGAGKAVPREELFVTSKLWNTKHHPEDVEPAVRKTLADLQLEYLDLYLMHWPYAFERGDNPFPKNADGTVKYDSTHYKETWKALEALVAKGLVKALGLSNFSSRQIDDVLSVASVRPAVLQVECHPYLAQNELIAHCQARGLEVTAYSPLGSSDRAWRHPDEPVLLEEPVVLALAEKHGRSPAQILLRWQVQRKVICIPKSITPSRILQNIQVFDFTFSPEEMKQLDALNKNWRYIVPMITVDGKRVPRDAGHPLYPFNDPY
modifications: His tag
Turning to B3, the NADPH consumed with glucuronate reductase (0.3 mM NADPH, 10 mM glucuronic acid, pH 6.6) is listed as 1-2 micromoles per minute per mg p. Further, the “Specific Activity (purified protein)” value with glucuronate reductase (His-Bind purified from E. coli) fell in the range of 1 to 3 µmol/min/mg.

The record behind these values is patent US20080187984A1, “Myo-inositol oxygenases” (Cargill, Incorporated, priority 2001, published 2008).
